Test results from patent publication US9238821B2, “Metabolic engineering for plant disease resistance” (The Samuel Roberts Noble Foundation, Inc., priority 2009, dated 2016).
Values joined by “and” are separate entries in the source; they are usually repeats but may differ in a detail not shown here. Equal entries are not always repeated. “Also recorded” adds a separate entry of the source.

Tested on: P. omnivora
Test: Fungal inhibition assay against P. omnivora on PDA medium
Type: cell-based, Phymatotrichopsis omnivora
Conditions: for in vitro growth inhibitory activity against P. omnivora (in words): PDA medium, 0.1 mM and 0.5 mM; for Fungal growth score (arbitrary scale 0 to 5): 120 h, 0 = no fungal growth (best inhibition), 5 = best fungal growth (no inhibition), two replicate columns

| Compound | in vitro growth inhibitory activity against P. omnivora (in words) | Fungal growth score (arbitrary scale 0 to 5) (compound 0.1 mM in PDA medium) | Fungal growth score (arbitrary scale 0 to 5) (compound 0.5 mM in PDA medium) | in vitro growth inhibitory activity against P. omnivora (in words) (listed as 7, 4′-dihydroxyflavone) |
| --- | --- | --- | --- | --- |
| O=c1cc(-c2ccc(O)cc2)oc2cc(O)c(O)cc12 [6,7,4′-trihydoxyflavone] | not active | – | – | – |
| O=c1cc(-c2ccc(O)cc2)oc2cc(O)ccc12 [7,4′-dihydroxyflavone] | strongly inhibited; also recorded: inhibited; also recorded: substantial in vitro growth inhibitory activity; also recorded: inhibit growth | 3 | 0 | substantial in vitro growth inhibitory activity |
| O=c1cc(-c2ccc(O)cc2)oc2cc(O)cc(O)c12 [apigenin] | not in vitro active | 5 | 5 | – |
| Oc1ccccc1O [catechol, reference compound] | – | 2 | 0 | – |
| COc1ccc(-c2coc3cc(O)ccc3c2=O)cc1 [formononetin, reference compound] | not active | 4 | 4 | – |
| O=C(/C=C/c1ccc(O)cc1)c1ccc(O)cc1O [isoliquiritigenin] | – | 4 | 4 | – |
| O=C1C[C@@H](c2ccc(O)cc2)Oc2cc(O)ccc21 [liquiritigenin] | no inhibition activity | 5 | 5 | – |
| O=C1C[C@@H](c2ccc(O)cc2)Oc2cc(O)cc(O)c21 [naringenin] | no inhibition activity | 4 and 5 | 3 and 5 | – |
| medicarpin | strong inhibition; also recorded: inhibited; also recorded: substantial in vitro growth inhibitory activity; also recorded: inhibit growth | 2 and 1 | 1 and 0 | – |
